# Measurements reported in ChEMBL document CHEMBL5360610, “N-Alkyl Carbamoylimidazoles as Versatile Synthons for the Synthesis of Urea-Based PSMA Inhibitors” (ACS Med Chem Lett, 2023).
# Activity calls are given as the source filed them. No cut-off for these calls is given here.
# How the values were obtained:
# [1] = target: T1, Glutamate carboxypeptidase 2 (Homo sapiens, UniProt Q04609); experiment: Displacement of [18F]PSMA-1007 from human PSMA expressed in human LNCaP cells at 0.1 to 100000 nM by competitive binding assay; assay type: cell-based; details: dose 0.1-100000 nM
# Target sequence in this assay (Q04609 whole entry, looked up): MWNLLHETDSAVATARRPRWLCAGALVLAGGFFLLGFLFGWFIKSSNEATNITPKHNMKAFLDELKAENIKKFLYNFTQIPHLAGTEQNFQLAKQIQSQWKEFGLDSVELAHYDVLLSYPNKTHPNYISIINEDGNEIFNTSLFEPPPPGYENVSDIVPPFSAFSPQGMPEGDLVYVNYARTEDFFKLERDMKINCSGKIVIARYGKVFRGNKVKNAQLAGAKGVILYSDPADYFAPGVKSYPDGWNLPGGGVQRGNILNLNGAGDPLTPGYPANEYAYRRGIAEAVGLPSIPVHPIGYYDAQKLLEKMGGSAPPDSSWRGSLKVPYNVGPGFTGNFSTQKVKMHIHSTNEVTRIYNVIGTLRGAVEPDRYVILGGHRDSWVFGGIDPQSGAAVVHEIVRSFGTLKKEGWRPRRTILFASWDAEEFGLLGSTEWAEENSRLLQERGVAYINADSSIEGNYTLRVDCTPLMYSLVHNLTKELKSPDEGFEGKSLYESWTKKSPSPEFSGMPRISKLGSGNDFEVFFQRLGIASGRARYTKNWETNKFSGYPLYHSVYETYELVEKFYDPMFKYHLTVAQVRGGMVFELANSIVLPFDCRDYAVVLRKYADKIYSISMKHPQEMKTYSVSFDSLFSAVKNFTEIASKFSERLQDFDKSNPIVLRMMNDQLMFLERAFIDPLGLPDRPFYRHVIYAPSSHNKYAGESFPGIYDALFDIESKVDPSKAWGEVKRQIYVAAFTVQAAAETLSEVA
# [2] = target: T1, Glutamate carboxypeptidase 2; experiment: Displacement of [18F]PSMA-1007 from human PSMA expressed in human LNCaP cells by competitive binding assay; assay type: cell-based
# Target sequence in this assay (Q04609 whole entry): as the sequence (Q04609 whole entry, looked up) above
inhibition [1],IC50 [2],Compound
inactive,–,O=C(Nc1scc(C(=O)O)c1C(=O)O)N[C@@H](CCCCNC(=O)c1cccc(F)n1)C(=O)O
–,1500 nM,O=C(O)CC[C@H](NC(=O)N[C@@H](CCCC(=O)NCc1ccc(F)cc1)C(=O)O)C(=O)O
–,13 nM,O=C(O)CC[C@H](CC(=O)N[C@@H](CCCCNC(=O)[C@H](Cc1ccccc1)NC(=O)COc1ccc(C[C@H](NC(=O)CCC(=O)CO/N=C/c2ccc(F)cc2)C(=O)O)cc1)C(=O)O)C(=O)O
inactive,–,O=C(Nc1scc(C(=O)O)c1C(=O)O)N[C@@H](CCCCNC(=O)c1ccc(F)cc1)C(=O)O
–,90 nM,O=C(O)CC[C@H](NC(=O)N[C@@H](CCCC(=O)Nc1ccc(F)nc1)C(=O)O)C(=O)O
–,4 nM,O=C(O)CC[C@H](NC(=O)N[C@@H](CCCCNC(=O)[C@H](Cc1ccc2ccccc2c1)NC(=O)[C@H]1CC[C@H](CNC(=O)[C@H](CCC(=O)O)NC(=O)[C@H](CCC(=O)O)NC(=O)c2ccc(F)nc2)CC1)C(=O)O)C(=O)O
